# Measured values from ChEMBL document CHEMBL1201862, “PubChem BioAssay data set” (2004).
# Active and inactive are the calls of the source.
# What was measured:
# [1] = inhibitors of intracellular T. cruzi replication, confirmation, NIH3T3 host cells, beta-gal luminescence (AID 2044); type: functional, cell-based;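 also: intracellular parasites grown in NIH/3T3 mouse fibroblasts as host cells; luminescent beta-galactosidase reporter signal from transgenic T. cruzi replicating inside host cells; inhibitors lower the luminescence signal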
# [2] = cytotoxicity toward NIH3T3 fibroblasts, dose response, counter-screen, cell-based, ATP luminescence, mouse fibroblasts (AID 2010); type: functional;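 also: cells exposed to compound for about 90 hours before reading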
# [3] = molecular target: Voltage-dependent T-type calcium channel subunit alpha-1H (Homo sapiens, UniProt O95180); type: functional;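 also: channel activity triggered by adding a high calcium stimulation buffer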
# [4] = THP-1 cell cytotoxicity, dose response, cytotoxicity control for non-replicating M. tuberculosis project (AID 489025); type: functional
# [5] = HepG2 cell cytotoxicity, dose response, cytotoxicity control for non-replicating M. tuberculosis project (AID 489018); type: functional; conditions: Mycobacterium tuberculosis
# [6] = Vero E6 cell cytotoxicity, dose response, cytotoxicity control for non-replicating M. tuberculosis project, secondary assay (AID 492998); type: functional, VeroE6; conditions: Vero C1008
# cells [7] = type: functional
# Cytochrome P450 3A4 = Cytochrome P450 3A4 (Homo sapiens, UniProt P08684); conditions: Potency;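 also: confirmatory qHTS run detecting inhibitors and substrates of CYP3A4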
# BJ [8] = test: cytotoxicity toward BJ-TERT fibroblasts, dose response, cell-based, RAS-independent, luminescence (AID 1933); type: functional; conditions: Homo sapiens
# BJ [9] = test: cells; type: functional, cell-based; conditions: Homo sapiens
# [10] = growth suppression of PTEN-null colon cells, dose response, cell-based, HCT116 PTEN knockout (AID 1047); type: functional;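 also: HCT116 colon tumor cells with PTEN knocked out; cells exposed to compound for 60 hours before readout; potency for loss of cell viability measured by luminescence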
# [11] = growth suppression of beta-catenin-knockout colon cells, dose response, cell-based, HCT116, human colon tumor (AID 1045); type: functional;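 also: HCT116 colon tumor cells with beta catenin knocked out; cells exposed to compound for 60 hours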
# BJ [12] = test: cytotoxicity toward BJ-TERT-LT-ST fibroblasts, dose response, cell-based, RAS-independent, luminescence (AID 1935); type: functional; conditions: Homo sapiens;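 also: BJ fibroblasts immortalized with TERT plus LT and ST oncogenes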
# [13] = cytotoxicity toward DRD oncogenic fibroblasts, dose response, cell-based, non-viral oncogenic, luminescence (AID 1934); type: functional; conditions: Homo sapiens
# [14] = molecular target: T1, Microphthalmia-associated transcription factor (Homo sapiens, UniProt O75030); test: TRPM1 promoter luciferase signal decrease, dose response, MITF inhibitor project, cell-based, SK-MEL-5, cherry-picked, set 3 (AID 493073); type: functional
# T1 sequence (O75030 whole entry): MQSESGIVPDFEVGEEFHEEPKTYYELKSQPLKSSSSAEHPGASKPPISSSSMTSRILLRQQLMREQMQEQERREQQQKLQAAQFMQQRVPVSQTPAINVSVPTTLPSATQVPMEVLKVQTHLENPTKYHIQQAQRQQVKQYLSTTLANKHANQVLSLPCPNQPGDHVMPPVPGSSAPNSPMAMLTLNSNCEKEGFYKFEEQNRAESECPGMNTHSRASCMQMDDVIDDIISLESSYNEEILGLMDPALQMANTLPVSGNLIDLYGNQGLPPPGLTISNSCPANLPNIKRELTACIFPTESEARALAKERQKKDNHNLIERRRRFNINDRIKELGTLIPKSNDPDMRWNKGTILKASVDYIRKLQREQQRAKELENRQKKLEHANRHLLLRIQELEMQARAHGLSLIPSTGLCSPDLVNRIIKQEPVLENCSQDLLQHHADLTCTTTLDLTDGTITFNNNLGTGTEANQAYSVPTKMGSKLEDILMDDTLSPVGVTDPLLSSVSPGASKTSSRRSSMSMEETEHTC
# [15] = cytotoxicity in HEK-293T cells, dose response, cytotoxicity control for BCR NF-kB inhibitor project, luminescence, B-cell screen hits (AID 489021); type: functional, cell-based;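 also: HEK-293T cells carrying an NF-kB luciferase reporter; cells exposed to compound for about 14 hours before viability readout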
# [16] = Shn3 3'UTR reporter inhibitors, dose response, cell-based, Clone20 osteoblasts, firefly luciferase, cherry-picked (AID 624132); type: functional;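 also: firefly luciferase luminescence from reporter carrying the Shn3 3'UTR in osteoblasts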
# [17] = HepG2 cell cytotoxicity, dose response, cytotoxicity control for Shn3 inhibitor project, CellTiter-Glo, cherry-picked (AID 624134); type: functional, cell-based
# [18] = control 3'UTR Renilla luciferase suppression, dose response, counter-screen for Shn3 inhibitor project, cell-based, Clone20-Shn3RL, cherry-picked (AID 624133); type: functional
# [19] = molecular target: Eukaryotic translation initiation factor 4H (Homo sapiens, UniProt Q15056); test: human eIF4H binding inhibitors, primary screen, translation initiation inhibitor project, biochemical, uHTS, fluorescence polarization (AID 2012)
# [20] = molecular target: Serine/threonine-protein phosphatase PP1-alpha catalytic subunit (Homo sapiens, UniProt P62136); test: PP1 phosphatase inhibitors, dose response, biochemical, fluorescence (AID 2403);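 also: phosphatase turnover of OMFP into fluorescent 3-O-methylfluorescein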
# SUMO-activating enzyme [21] = molecular target: T2, SUMO-activating enzyme (Homo sapiens, UniProt Q9UBT2); test: SUMOylation inhibitor hit validation, confirmation, SUMOylation inhibitor project, biochemical, AlphaScreen (AID 2018); type: functional
# SUMO-activating enzyme [22] = molecular target: T2, SUMO-activating enzyme; test: inhibitors of in vitro SUMOylation cascade, primary screen, biochemical, HTRF, uHTS (AID 2006); type: protein-complex assay
# [23] = molecular target: T3, Serine/threonine-protein phosphatase (Homo sapiens, UniProt Q9BPW0); test: Counterscreen for inhibitors of PP1: fluorescence-based biochemical high throughput dose response assay to identify inhibitors of Protein Phosphatase 5 (PP5). [Related pubchem assays: 2034 (Summary (PP5 inhibitors)), 1987 (PP5 inhibitors in singlate), 2235 (PP1 inhibitors in singlate)]
# T3 sequence (Q9BPW0 whole entry): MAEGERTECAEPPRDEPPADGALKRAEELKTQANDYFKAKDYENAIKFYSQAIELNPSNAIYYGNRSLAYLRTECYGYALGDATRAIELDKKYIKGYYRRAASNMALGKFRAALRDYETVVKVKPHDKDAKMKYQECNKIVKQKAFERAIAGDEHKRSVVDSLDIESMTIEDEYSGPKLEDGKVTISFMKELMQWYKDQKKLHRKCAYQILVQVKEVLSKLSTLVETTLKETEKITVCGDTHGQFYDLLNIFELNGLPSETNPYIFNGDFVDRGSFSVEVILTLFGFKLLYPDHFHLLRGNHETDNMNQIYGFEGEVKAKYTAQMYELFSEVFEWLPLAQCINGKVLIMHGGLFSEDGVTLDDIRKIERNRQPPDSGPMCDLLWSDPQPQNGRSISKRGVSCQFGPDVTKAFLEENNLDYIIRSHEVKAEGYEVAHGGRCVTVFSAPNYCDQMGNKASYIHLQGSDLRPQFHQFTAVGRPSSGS
# [24] = molecular target: Polyadenylate-binding protein 1 (Homo sapiens, UniProt P11940); test: PABP poly(A) RNA binding inhibitors, primary screen, biochemical, fluorescence polarization, uHTS (AID 2014)
# [25] = microbe, parasite or virus in culture; type: functional; conditions: Mycobacterium tuberculosis
# Protein skinhead-1 = molecular target: T4, Protein skinhead-1 (Caenorhabditis elegans, UniProt P34707); type: functional
# T4 sequence (P34707 whole entry): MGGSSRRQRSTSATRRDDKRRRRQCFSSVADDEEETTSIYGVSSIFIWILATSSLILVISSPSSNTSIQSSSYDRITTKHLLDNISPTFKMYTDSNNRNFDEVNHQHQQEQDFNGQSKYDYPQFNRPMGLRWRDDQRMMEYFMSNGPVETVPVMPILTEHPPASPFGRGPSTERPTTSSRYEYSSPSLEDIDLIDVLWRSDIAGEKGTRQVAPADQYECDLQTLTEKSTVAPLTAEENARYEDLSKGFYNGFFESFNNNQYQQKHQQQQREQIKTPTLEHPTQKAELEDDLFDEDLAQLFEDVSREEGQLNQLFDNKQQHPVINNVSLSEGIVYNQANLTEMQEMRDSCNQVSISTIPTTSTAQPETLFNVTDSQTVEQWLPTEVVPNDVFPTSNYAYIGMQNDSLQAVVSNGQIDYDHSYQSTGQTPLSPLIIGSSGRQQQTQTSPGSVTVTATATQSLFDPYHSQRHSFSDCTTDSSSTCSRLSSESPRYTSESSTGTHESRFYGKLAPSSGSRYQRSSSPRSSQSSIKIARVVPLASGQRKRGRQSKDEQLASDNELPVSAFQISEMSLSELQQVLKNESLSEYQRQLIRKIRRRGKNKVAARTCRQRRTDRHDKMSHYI
# Ion channel NompC = Ion channel NompC (Danio rerio, UniProt Q7T1G6); test: Dose response cell-based high-throughput screening assay for agonists of the transient receptor potential channel N1 (TRPN1). [Related pubchem assays (depositor defined):AID1424, AID1448]; type: functional
# Mucolipin-3 = molecular target: T5, Mucolipin-3 (Homo sapiens, UniProt Q8TDD5); test: Fluorescence counterscreen assay for […] agonists: dose response cell-based high-throughput screening assay to identify agonists of the transient receptor potential channel ML3 (TRPML3). [Related pubchem assays: 1424, 1448 ]; type: functional
# T5 sequence (Q8TDD5 whole entry): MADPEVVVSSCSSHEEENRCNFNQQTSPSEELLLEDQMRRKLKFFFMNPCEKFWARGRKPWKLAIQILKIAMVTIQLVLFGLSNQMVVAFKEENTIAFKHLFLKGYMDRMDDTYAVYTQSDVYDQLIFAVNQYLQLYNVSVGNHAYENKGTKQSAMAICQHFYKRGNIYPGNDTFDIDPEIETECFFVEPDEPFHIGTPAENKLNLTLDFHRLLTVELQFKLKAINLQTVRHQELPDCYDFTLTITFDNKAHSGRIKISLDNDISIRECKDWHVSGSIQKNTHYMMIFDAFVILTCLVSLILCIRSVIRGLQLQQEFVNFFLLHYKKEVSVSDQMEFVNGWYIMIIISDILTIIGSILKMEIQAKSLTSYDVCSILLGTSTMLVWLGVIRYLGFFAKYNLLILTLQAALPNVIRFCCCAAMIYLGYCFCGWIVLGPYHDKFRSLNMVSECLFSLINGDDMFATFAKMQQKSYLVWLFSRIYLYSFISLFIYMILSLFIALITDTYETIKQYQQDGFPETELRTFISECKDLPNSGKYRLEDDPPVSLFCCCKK
# cells [26] = type: functional, cell-based
# cells [27] = type: functional, cell-based; remark: listed apart in the source
# Nonstructural protein 1 = Nonstructural protein 1 (Influenza A virus, UniProt Q194T2); type: functional, Influenza A virus (A/California/07/2009(H1N1))
# [28] = molecular target: Alkaline phosphatase, placental type (Homo sapiens, UniProt P05187); test: PLAP enzyme inhibitors, confirmation, biochemical, luminescence (AID 1512); type: functional
# [29] = molecular target: T6, Alkaline phosphatase, tissue-nonspecific isozyme (Homo sapiens, UniProt P05186); test: human TNAP enzyme inhibitors, SAR follow-up, biochemical, luminescent, dose response (AID 1056)
# T6 sequence (P05186 whole entry): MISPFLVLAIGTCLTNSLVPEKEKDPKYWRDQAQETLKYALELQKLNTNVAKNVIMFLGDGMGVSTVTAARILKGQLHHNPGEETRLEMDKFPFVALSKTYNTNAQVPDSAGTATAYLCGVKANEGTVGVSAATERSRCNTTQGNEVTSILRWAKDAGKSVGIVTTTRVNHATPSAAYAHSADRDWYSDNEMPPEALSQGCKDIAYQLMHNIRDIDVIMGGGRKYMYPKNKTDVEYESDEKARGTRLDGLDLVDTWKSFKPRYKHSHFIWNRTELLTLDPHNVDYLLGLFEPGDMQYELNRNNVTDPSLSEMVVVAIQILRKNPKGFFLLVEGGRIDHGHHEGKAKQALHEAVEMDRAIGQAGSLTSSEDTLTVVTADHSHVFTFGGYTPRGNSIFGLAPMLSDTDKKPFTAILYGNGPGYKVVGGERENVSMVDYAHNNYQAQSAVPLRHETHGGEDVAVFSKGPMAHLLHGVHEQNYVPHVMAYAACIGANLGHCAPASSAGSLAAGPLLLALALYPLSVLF
# Chain of Cytochrome P450 3A4 (P08684 whole entry): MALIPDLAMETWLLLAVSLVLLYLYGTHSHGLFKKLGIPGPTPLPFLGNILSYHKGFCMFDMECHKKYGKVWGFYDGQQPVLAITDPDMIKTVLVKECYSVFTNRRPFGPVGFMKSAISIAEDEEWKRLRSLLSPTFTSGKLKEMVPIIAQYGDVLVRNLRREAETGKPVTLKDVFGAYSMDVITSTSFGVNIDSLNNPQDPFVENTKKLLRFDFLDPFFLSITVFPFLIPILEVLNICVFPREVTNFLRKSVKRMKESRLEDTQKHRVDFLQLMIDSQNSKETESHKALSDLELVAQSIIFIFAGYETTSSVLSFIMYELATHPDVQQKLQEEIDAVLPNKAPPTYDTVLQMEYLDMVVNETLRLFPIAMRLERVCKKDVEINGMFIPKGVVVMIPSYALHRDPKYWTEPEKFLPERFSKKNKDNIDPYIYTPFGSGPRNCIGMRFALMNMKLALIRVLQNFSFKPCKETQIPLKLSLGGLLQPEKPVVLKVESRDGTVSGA
# T2 sequence (Q9UBE0 whole entry): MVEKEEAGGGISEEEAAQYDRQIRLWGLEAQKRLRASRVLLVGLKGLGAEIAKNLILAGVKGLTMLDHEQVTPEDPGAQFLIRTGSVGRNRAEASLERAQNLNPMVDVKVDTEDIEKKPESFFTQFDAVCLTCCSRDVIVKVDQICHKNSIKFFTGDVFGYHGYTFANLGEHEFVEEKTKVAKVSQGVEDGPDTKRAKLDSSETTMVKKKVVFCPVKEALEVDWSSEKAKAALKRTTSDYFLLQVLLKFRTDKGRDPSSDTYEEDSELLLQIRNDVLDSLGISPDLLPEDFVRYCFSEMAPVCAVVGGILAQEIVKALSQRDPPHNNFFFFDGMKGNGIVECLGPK
# T2 sequence (Q9UBT2 whole entry): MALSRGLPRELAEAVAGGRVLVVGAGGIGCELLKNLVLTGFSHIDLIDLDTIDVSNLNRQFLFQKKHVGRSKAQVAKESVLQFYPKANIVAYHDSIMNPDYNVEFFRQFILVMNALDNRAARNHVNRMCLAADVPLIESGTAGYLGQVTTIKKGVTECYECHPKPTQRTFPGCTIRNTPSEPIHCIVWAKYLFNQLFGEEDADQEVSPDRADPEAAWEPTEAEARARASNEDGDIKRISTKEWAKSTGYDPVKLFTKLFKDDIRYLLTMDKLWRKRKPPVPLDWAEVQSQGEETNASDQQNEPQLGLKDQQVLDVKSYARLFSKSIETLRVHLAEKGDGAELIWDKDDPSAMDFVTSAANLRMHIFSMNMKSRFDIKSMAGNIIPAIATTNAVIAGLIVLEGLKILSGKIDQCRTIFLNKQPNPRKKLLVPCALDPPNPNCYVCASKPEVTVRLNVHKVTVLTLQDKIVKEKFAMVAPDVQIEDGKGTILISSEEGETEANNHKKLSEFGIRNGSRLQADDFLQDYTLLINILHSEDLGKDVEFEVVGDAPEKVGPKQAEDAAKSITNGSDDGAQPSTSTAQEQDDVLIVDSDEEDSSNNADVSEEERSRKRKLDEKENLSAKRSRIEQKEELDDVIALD
# Chain of Ion channel NompC (Q7T1G6 whole entry): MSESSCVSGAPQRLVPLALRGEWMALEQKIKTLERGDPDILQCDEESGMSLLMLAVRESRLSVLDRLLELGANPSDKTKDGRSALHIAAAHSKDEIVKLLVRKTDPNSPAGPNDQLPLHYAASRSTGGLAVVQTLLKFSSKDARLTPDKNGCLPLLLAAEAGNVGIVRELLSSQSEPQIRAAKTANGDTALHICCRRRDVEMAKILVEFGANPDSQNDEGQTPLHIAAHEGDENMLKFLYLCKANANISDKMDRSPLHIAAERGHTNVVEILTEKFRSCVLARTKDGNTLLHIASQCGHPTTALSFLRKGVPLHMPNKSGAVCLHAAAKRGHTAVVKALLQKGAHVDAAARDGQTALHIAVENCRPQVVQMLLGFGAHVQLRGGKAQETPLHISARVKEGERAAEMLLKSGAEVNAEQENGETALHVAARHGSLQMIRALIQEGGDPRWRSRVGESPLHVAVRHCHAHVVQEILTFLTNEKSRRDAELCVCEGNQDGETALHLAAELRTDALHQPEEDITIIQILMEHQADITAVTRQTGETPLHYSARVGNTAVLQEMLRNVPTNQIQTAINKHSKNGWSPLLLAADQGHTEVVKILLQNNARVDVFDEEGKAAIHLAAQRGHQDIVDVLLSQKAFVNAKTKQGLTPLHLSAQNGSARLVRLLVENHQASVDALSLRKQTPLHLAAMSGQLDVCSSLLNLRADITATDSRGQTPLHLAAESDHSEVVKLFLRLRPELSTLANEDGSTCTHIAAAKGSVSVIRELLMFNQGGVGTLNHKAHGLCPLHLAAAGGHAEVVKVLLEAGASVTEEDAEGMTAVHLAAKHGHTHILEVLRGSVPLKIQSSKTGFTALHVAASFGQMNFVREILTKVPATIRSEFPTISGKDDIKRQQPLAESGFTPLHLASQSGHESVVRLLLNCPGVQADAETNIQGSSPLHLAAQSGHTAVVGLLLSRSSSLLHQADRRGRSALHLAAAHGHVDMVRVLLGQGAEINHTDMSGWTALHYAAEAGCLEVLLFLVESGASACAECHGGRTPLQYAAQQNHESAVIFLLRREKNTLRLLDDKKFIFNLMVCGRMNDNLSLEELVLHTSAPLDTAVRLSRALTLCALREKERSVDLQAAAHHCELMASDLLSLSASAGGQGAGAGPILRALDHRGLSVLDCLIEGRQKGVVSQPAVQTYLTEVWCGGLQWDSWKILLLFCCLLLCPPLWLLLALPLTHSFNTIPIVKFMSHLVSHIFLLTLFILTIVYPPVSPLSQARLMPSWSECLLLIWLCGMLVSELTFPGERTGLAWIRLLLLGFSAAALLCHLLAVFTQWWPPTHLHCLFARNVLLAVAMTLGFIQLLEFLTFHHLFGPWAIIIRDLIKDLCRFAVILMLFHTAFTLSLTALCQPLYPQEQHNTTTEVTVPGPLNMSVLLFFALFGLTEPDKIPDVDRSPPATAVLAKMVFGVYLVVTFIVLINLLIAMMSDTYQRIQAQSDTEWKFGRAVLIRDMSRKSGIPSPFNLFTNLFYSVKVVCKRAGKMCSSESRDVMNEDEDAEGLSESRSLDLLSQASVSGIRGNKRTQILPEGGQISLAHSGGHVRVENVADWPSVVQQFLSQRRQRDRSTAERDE
# Chain of Polyadenylate-binding protein 1 (P11940 whole entry): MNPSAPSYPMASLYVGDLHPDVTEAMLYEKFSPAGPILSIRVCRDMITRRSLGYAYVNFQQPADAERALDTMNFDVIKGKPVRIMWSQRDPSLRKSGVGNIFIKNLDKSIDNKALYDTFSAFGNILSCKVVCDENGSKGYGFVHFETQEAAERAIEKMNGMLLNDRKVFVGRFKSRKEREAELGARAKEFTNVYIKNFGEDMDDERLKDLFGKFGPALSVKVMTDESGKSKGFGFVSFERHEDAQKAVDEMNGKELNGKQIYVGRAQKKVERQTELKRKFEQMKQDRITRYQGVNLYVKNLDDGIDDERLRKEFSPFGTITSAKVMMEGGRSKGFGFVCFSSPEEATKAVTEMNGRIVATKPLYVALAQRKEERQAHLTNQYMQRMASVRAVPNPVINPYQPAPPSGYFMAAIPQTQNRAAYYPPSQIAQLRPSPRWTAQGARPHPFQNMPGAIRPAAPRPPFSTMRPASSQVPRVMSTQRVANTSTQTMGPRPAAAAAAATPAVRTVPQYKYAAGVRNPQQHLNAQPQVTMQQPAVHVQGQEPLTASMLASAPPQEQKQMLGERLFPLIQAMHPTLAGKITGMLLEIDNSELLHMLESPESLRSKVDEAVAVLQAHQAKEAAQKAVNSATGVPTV
# Chain of Serine/threonine-protein phosphatase PP1-alpha catalytic subunit (P62136 whole entry): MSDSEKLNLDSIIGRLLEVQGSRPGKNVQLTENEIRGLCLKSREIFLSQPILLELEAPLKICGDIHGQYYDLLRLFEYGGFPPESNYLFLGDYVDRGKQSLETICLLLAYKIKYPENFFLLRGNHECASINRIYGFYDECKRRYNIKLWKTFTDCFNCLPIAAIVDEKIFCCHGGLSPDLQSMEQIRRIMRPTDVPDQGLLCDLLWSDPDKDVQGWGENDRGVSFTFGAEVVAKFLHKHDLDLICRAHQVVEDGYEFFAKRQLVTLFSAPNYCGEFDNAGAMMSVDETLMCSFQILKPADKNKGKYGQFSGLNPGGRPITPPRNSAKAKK
# Chain of Nonstructural protein 1 (Q194T2 whole entry): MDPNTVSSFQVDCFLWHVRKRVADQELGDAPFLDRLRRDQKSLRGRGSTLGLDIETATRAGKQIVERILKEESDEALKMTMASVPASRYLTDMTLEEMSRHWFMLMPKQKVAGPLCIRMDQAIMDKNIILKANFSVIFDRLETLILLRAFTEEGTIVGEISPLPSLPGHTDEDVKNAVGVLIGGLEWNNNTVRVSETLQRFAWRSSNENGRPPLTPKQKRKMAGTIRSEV
smiles,measurement,setting,value
CCCCN(CC)S(=O)(=O)c1ccc(C(=O)Nc2nnc(-c3cccs3)o2)cc1,EC50,[1],1.22 µM (active)
same,EC50,[2],5.48 µM (active)
same,EC50,[3],2.67 µM (active)
same,CC50,[4],3.18 µM (active)
same,CC50,[5],9.5 µM (active)
same,CC50,[6],4.23 µM (active)
same,IC50,cells [7],4.66 µM (active)
Nc1cc(=O)[nH]c(=O)n1CC1CC1,AC50,Cytochrome P450 3A4,3.98 µM (inconclusive)
COc1ccc(C(C(=O)NC2CCCCC2)N(C(=O)CCl)c2ccc(OC)cc2)cc1 (stereo unspecified),EC50,BJ [8],1.15 µM (inconclusive)
same,EC50,BJ [9],5.19 µM (active)
same,EC50,[10],0.959 µM (active)
same,EC50,[11],0.721 µM (active)
same,EC50,BJ [12],8.28 µM (inconclusive)
same,EC50,[13],1.26 µM (active)
same,AC50,[14],9.27 µM (active)
same,IC50,[15],> 80 µM (inactive)
same,AC50,[16],5.56 µM (active)
same,AC50,[17],> 70 µM (inactive)
same,AC50,[18],14.8 µM (active)
COc1ccc(N=C(S)NCc2ccccc2)c(OC)c1,IC50,[15],> 80 µM (inactive)
C[C@H]1[C@H](C)CC[C@]2(C(=O)O)CC[C@]3(C)C(=CCC4[C@@]5(C)C[C@@H](O)[C@H](O)[C@@](C)(CO)[C@@H]5CC[C@]43C)[C@H]12 (stereo partly specified),AC50,Cytochrome P450 3A4,15.8 µM (inconclusive)
N#Cc1c(-c2ccc(Cl)cc2)cc(-c2cccs2)nc1SCC(=O)O,IC50,[19],10.7 µM (active)
same,IC50,[20],6.66 µM (active)
same,IC50,SUMO-activating enzyme [21],8.73 µM (active)
same,IC50,SUMO-activating enzyme [22],> 100 µM (inactive)
same,IC50,[23],> 67 µM (not active)
same,IC50,[24],39.7 µM (active)
CCCC(NCC(O)COc1ccc(-c2ccccc2)cc1)c1ccccc1 (stereo unspecified),EC50,[1],2.1 µM (active)
same,CC50,[25],12.6 µM (active)
same,EC50,[2],17.6 µM (active)
same,CC50,[4],15.7 µM (active)
same,CC50,[5],> 20 µM (active)
same,CC50,[6],12.7 µM (active)
same,IC50,cells [7],12 µM (active)
same,IC50,Protein skinhead-1,> 100 µM (inactive)
COc1ccc(C=C(C(C)=O)C(C)=O)cc1OC,IC50,[15],> 80 µM (inactive)
O=C(O)c1cc2c(cc1Br)OCCCO2,EC50,Ion channel NompC,> 29.9 µM (inactive)
same,EC50,Mucolipin-3,> 29.9 µM (not active)
c1ccc(N2CCN(Cc3nc4ccccc4[nH]3)CC2)nc1,AC50,Cytochrome P450 3A4,25.1 µM (inconclusive)
O=C(N/N=C/c1cc(Cl)cc(Cl)c1O)c1ccncc1,EC50,cells [26],259 µM (active)
same,EC50,Ion channel NompC,6.49 µM (active)
same,EC50,cells [27],> 350 µM (not active)
same,EC50,Mucolipin-3,14.2 µM (not active)
same,IC50,Nonstructural protein 1,5.57 µM (active)
Cc1cc(C)nc(SCC(=O)c2ccc(O)cc2)n1,IC50,[28],> 100 µM (inactive)
same,IC50,[29],> 100 µM (inactive)
